Source: patent US20230365514A1, “MACROCYCLIC COMPOUNDS” (NOVO NORDISK RESEARCH CENTRE OXFORD LIMITED, priority 2017, published 2023)
Values joined by “and” are separate entries in the source; they are usually repeats but may differ in a detail not shown here. Identical values can stand only once.

Legend:
[1] = ITC titration with D-glucose; format: binding; conditions: d-glucose in 10 mM phosphate buffer, 298 K (Table 6)
Experimental: ITC experiments were carried out at 298 K. Saccharide solutions were prepared in HPLC-grade water with 10 mM phosphate buffer solution (pH 7.4) and allowed to equilibrate overnight if necessary. The sample cell was charged with a known concentration of receptor solution in HPLC-grade water with 10 mM phosphate buffer solution at pH 7.4 (typically 50 µM - 200 µM). Then, aliquots (typically 1.0 µL) of carbohydrate solution were added and the evolution of heat was followed as a function of time. Heats of dilution were measured by injecting the same carbohydrate solution into HPLC-grade water with 10 mM phosphate buffer solution at pH 7.4, using identical conditions. For every addition, the heat of dilution was subtracted from the heat of binding using a MicroCal software programme implemented in ORIGIN 7.0. This gave an XY matrix of heat vs. total guest concentration. This matrix was then imported into a specially written Excel programme to fit the data to a 1:1 binding model to give a Ka. ΔG can be derived from Ka and thus ΔS can be derived from ΔH and ΔG using common thermodynamic equations. […] This method consistently produced more accurate fits than fitting the data to an S-curve, as in the MicroCal software (S-curves are typically not observed for binding constants below ~104 - 105 M^-1).

[2] = 1H NMR titration with D-glucose; format: binding; conditions: D2O; buffer differs by receptor (FIGS. 68-73, 77) (Table 6)
Experimental: ^1H-NMR titrations were performed on a Varian VNMR cryogenically cooled S600 spectrometer. Solutions of saccharides in D2O (99.9%), containing receptor at a known concentration to be used in the experiment, were prepared and allowed to equilibrate overnight before use if necessary. Aliquots were then added to an NMR tube containing a known concentration of receptor solution (typically 100 µM - 400 µM). The receptor concentration was therefore held constant while the carbohydrate concentration was increased. The sample tube was shaken after each addition and ^1H-NMR spectra were acquired at 298 K.
^1H-NMR titrations were performed on a Varian VNMR cryogenically cooled S600 spectrometer. Solutions of saccharides in D2O (99.9%), containing receptor at a known concentration to be used in the experiment, were prepared and allowed to equilibrate overnight before use if necessary. Aliquots were then added to an NMR tube containing a known concentration of receptor solution (typically 50 µM - 250 µM). The receptor concentration was therefore held constant while the carbohydrate concentration was increased. The sample tube was shaken after each addition, centrifuged and ^1H-NMR spectra were acquired at 298 K.
If the receptor bound saccharide slower than the NMR sample rate (“slow exchange”), the Ka was determined by analysing the NMR integral of a peak assigned to the Host-Guest complex. The variable X was defined as the integral of an isolated resonance of the complex (typically in the aromatic region) divided by the integral of all the related resonances (typically the whole aromatic region). As X is proportional to fraction of host in the bound state, the change in X could be plotted as a function of the guest concentration to give a curve which could be fitted to a 1:1 binding model to yield the association constant Ka. Mathematically, the fitting process is essentially identical to that employed for binding with fast exchange, except that the integral of a peak due to the complex replaces the chemical shift of a peak due to bound + unbound receptor. The calculation was performed using a non-linear least squares curve-fitting programme implemented within Excel. The programme yields binding constants Ka and limiting X (Xlim) as output. An estimated error for Ka was obtained from individual data points by assuming the determined Ka and Xlim.

SMILES | Binding affinity for D-glucose (Ka), Determined by ITC [1] | Binding affinity for D-glucose (Ka), Determined by 1H-NMR [2]
Cc1c2c(C)c3c(C)c1CNC(=O)Nc1ccc(C(=O)NC(CCC(=O)NC(CCC(=O)O)(CCC(=O)O)CCC(=O)O)(CCC(=O)NC(CCC(=O)O)(CCC(=O)O)CCC(=O)O)CCC(=O)NC(CCC(=O)O)(CCC(=O)O)CCC(=O)O)cc1NC(=O)NCc1c(C)c(c(C)c(c1C)CNC(=O)Nc1cc(C(=O)NC(CCC(=O)NC(CCC(=O)O)(CCC(=O)O)CCC(=O)O)(CCC(=O)NC(CCC(=O)O)(CCC(=O)O)CCC(=O)O)CCC(=O)NC(CCC(=O)O)(CCC(=O)O)CCC(=O)O)ccc1NC(=O)NC3)CNC(=O)Nc1cc(C(=O)NC(CCC(=O)NC(CCC(=O)O)(CCC(=O)O)CCC(=O)O)(CCC(=O)NC(CCC(=O)O)(CCC(=O)O)CCC(=O)O)CCC(=O)NC(CCC(=O)O)(CCC(=O)O)CCC(=O)O)ccc1NC(=O)NC2 [Receptor 8] | 4210 M⁻¹ and 4210 ± 73 M⁻¹ | –
CCc1c2c(CC)c3c(CC)c1CNC(=O)Nc1ccc(C(=O)NCCOCCOCCOCCN)cc1NC(=O)NCc1c(CC)c(c(CC)c(c1CC)CNC(=O)Nc1cc(C(=O)NCCOCCOCCOCCN)ccc1NC(=O)NC3)CNC(=O)Nc1cc(C(=O)NCCOCCOCCOCCN)ccc1NC(=O)NC2 [Receptor 10] | – | 481 ± 57 M⁻¹
CCc1c2c(CC)c3c(CC)c1CNC(=O)Nc1cc(C(=O)[O-])c(C(=O)[O-])cc1NC(=O)NCc1c(CC)c(c(CC)c(c1CC)CNC(=O)Nc1cc(C(=O)[O-])c(C(=O)[O-])cc1NC(=O)NC3)CNC(=O)Nc1cc(C(=O)[O-])c(C(=O)[O-])cc1NC(=O)NC2.[Na+].[Na+].[Na+].[Na+].[Na+].[Na+] [Receptor 11, Hexa-carboxylate Hexa-urea Macrocycle] | – | ~ 2000 M^-1
CCc1c2c(CC)c3c(CC)c1CNC(=O)Nc1cc(C(=O)NC(CCC(=O)NC(CCC(=O)[O-])(CCC(=O)[O-])CCC(=O)[O-])(CCC(=O)NC(CCC(=O)[O-])(CCC(=O)[O-])CCC(=O)[O-])CCC(=O)NC(CCC(=O)[O-])(CCC(=O)[O-])CCC(=O)[O-])ccc1NC(=O)NCc1c(OC)c(c(OC)c(c1OC)CNC(=O)Nc1ccc(C(=O)NC(CCC(=O)NC(CCC(=O)[O-])(CCC(=O)[O-])CCC(=O)[O-])(CCC(=O)NC(CCC(=O)[O-])(CCC(=O)[O-])CCC(=O)[O-])CCC(=O)NC(CCC(=O)[O-])(CCC(=O)[O-])CCC(=O)[O-])cc1NC(=O)NC3)CNC(=O)Nc1ccc(C(=O)NC(CCC(=O)NC(CCC(=O)[O-])(CCC(=O)[O-])CCC(=O)[O-])(CCC(=O)NC(CCC(=O)[O-])(CCC(=O)[O-])CCC(=O)[O-])CCC(=O)NC(CCC(=O)[O-])(CCC(=O)[O-])CCC(=O)[O-])cc1NC(=O)NC2.[Na+].[Na+].[Na+].[Na+].[Na+].[Na+].[Na+].[Na+].[Na+].[Na+].[Na+].[Na+].[Na+].[Na+].[Na+].[Na+].[Na+].[Na+].[Na+].[Na+].[Na+].[Na+].[Na+].[Na+].[Na+].[Na+].[Na+] [Receptor 13] | 1310 M⁻¹ and 1310 ± 33 M⁻¹ | –
CCc1c2c(CC)c3c(CC)c1CNC(=O)Nc1ccc(C(=O)NC(CCC(=O)NC(CCC(=O)[O-])(CCC(=O)[O-])CCC(=O)[O-])(CCC(=O)NC(CCC(=O)[O-])(CCC(=O)[O-])CCC(=O)[O-])CCC(=O)NC(CCC(=O)[O-])(CCC(=O)[O-])CCC(=O)[O-])cc1NC(=O)NCc1c(C)c(c(C)c(c1C)CNC(=O)Nc1cc(C(=O)NC(CCC(=O)NC(CCC(=O)[O-])(CCC(=O)[O-])CCC(=O)[O-])(CCC(=O)NC(CCC(=O)[O-])(CCC(=O)[O-])CCC(=O)[O-])CCC(=O)NC(CCC(=O)[O-])(CCC(=O)[O-])CCC(=O)[O-])ccc1NC(=O)NC3)CNC(=O)Nc1cc(C(=O)NC(CCC(=O)NC(CCC(=O)[O-])(CCC(=O)[O-])CCC(=O)[O-])(CCC(=O)NC(CCC(=O)[O-])(CCC(=O)[O-])CCC(=O)[O-])CCC(=O)NC(CCC(=O)[O-])(CCC(=O)[O-])CCC(=O)[O-])ccc1NC(=O)NC2.[Na+].[Na+].[Na+].[Na+].[Na+].[Na+].[Na+].[Na+].[Na+].[Na+].[Na+].[Na+].[Na+].[Na+].[Na+].[Na+].[Na+].[Na+].[Na+].[Na+].[Na+].[Na+].[Na+].[Na+].[Na+].[Na+].[Na+] [Receptor 14] | – | 14926 ± 1566 M⁻¹
